The assay is described as follows: Anti-oxidation action, DPPH radical trapping (Example 2). As to conditions: absorbance at 517 nm reduced to half, 30 minutes. How it is done: An ethanol solution of a stable radical 1,1-diphenyl-2-picryl-hydrazyl (DPPH) has an absorption at 517 nm in blue. When a radical trapping substance is added to this solution, the solution is discolored depending on the amount of the trapping substance added. This phenomenon was utilized in this method. First, 1 ml of ethanol, 1 ml of an ethanol solution of the extract (concentration: 0 to 100 μg/ml), 2 ml of 0.2 M acetic acid buffer solution (pH 5.5) and 1 ml of DPPH solution (2.0×10^−7 mol/ml ethanol solution) were mixed, and the mixture was allowed to stand for 30 minutes. Then, the absorbance of this mixed solution was determined at 517 nm. On the other hand, a mixture solution substituting 1 ml of ethanol for the DPPH solution was used as a blank, and the absorbance of this mixture solution was determined at 517 nm in the same manner as the above. Then, the amount of the extract required to reduce the absorbance to half was calculated, and this was used as an indicator of anti-oxidation. As comparative examples, α-tocopherol and green tea were used in place of the extract, and the anti-oxidation power thereof was investigated.

Consider `Cc1c(C)c2c(c(C)c1O)CC[C@@](C)(CCC[C@H](C)CCC[C@H](C)CCCC(C)C)O2` [α-tocopherol], for which the “Anti-oxidation power: the amount required to trap 1.0 × 10^−7 mol DPPH” value was determined as 21 μg.

These data come from patent US20030072824A1, “Ume extract having medicinal effects and compositions containing the same” (priority 1998, published 2003).
